Assay results from ChEMBL document CHEMBL1938368, “Structure-activity relationship of naphthaldehydethiosemicarbazones in melanogenesis inhibition” (Bioorg Med Chem Lett, 2012).

Key:
B16 [1] = test: Antimelanogenic activity at alpha-MSH-stimulated mouse melanoma B16 cells at 10 uM after 3 days by spectrophotometry; format: functional; details: B16, 72 h
B16 [2] = test: Antimelanogenic activity at alpha-MSH-stimulated mouse melanoma B16 cells after 3 days by spectrophotometry; format: functional, cell-based; details: B16, 72 h

IC50 (B16 [2]) [nM] | Compound | inhibition at 10 µM (B16 [1]) [%]
2000 | CNC(=S)N/N=C/c1cccc2ccccc12 | > 100
1100 | CCNC(=S)N/N=C/c1cccc2ccccc12 | > 100
500 | S=C(N/N=C/c1cccc2ccccc12)Nc1ccccc1 | > 100
580 | Cc1ccc(NC(=S)N/N=C/c2cccc3ccccc23)cc1 | > 100
1900 | S=C(N/N=C/c1cccc2ccccc12)Nc1ccc(Cl)cc1 | > 100
860 | COc1ccc(NC(=S)N/N=C/c2cccc3ccccc23)cc1 | > 100
450 | Cc1cccc(NC(=S)N/N=C/c2cccc3ccccc23)c1 | > 100
830 | COc1cccc(NC(=S)N/N=C/c2cccc3ccccc23)c1 | > 100
490 | Cc1ccccc1NC(=S)N/N=C/c1cccc2ccccc12 | > 100
920 | COc1ccccc1NC(=S)N/N=C/c1cccc2ccccc12 | > 100
270 | S=C(NCc1ccccc1)N/N=C/c1cccc2ccccc12 | > 100
290 | S=C(N/N=C/c1cccc2ccccc12)NC1CCCCC1 | > 100
280 | CN(C)C(=S)N/N=C/c1cccc2ccccc12 | > 100
1600 | CN(/N=C/c1cccc2ccccc12)C(N)=S | > 100
8600 | CN(C)C(=S)N(C)/N=C/c1cccc2ccccc12 | 76
> 100000 | NC(=O)N/N=C/c1cccc2ccccc12 | < 10
